From US4508716A, “[1,2]-Fused 1,4-benzodiazepine compounds, process for their preparation and compositions containing them” (Kali-Chemie Pharma GmbH, priority 1981, dated 1985)

How the values were obtained:
[1] = tested on: apomorphine-induced climbing behaviour; assay: Test for neuroleptic properties: inhibition of apomorphine-induced climbing behaviour in mice; assay type: in vivo; conditions: Mus musculus, male NMR1 mice, 60 min before apomorphine 1.0 mg/kg s.c.; for inhibition in vivo at 2.2 mg/kg: dose 2.2 mg/kg peroral
Protocol: 2. Test for neuroleptic properties
Determination of the effective dose for inhibiting apomorphine-induced climbing behaviour in mice (modified method of P. Protais et al., Psychopharmacology 50, (1976), 1-6).
Groups each containing 10 male NMR1 mice of 18-24 g. body weight are used per test dose. The test substance is administered perorally, as a suspension in […] "Tylose" solution.
After 60 minutes, the animals are each injected subcutaneously with 1.0 mg./kg. of apomorphine, and immediately after the injection, each animal is placed under a vertical wire mesh cylinder (diameter 13 cm., height 16 cm., closed at the top). After 10, 20 and 30 minutes, the climbing behaviour of the animals is evaluated in accordance with the following point system:
0 points=no paw on the mesh
1 point=one or two paws touching the mesh
2 points=three or all paws gripping the mesh, or climbing
For each test group, the sum of the points (maximum number of points=20) at the three test times is determined, and the average of the 3 values is taken for calculating the inhibition of climbing behaviour effected by the test substance.
In the table which follows, the inhibiting action is given in % inhibition in comparison with the climbing behaviour of a control group which was not treated with the test substance.

[2] = tested on: hexobarbital anaesthesia; assay: Test for the central nervous system sedating properties: prolongation of the duration of hexobarbital anaesthesia in mice; assay type: in vivo; conditions: male mice, 60 min before hexobarbital sodium 50 mg/kg i.v.
[3] = Acute toxicity (acute 7-day toxicity following a single oral administration, LD50 by probit analysis); conditions: mouse, in vivo, NMR1 mice
Protocol: The acute 7-day toxicity is determined following a single oral administration to white, fasting NMR1 mice, and the LD50 value is calculated by electronic data processing, by probit analysis.

Cc1cc(C)c2c(c1)N1CCOCC1CN=C2c1cccs1 (centres unmarked) [Example 63]
inhibition in vivo at 21.3 mg/kg ([1]; dose 21.3 mg/kg peroral): 11% | Prolongation of the duration of hexobarbital anaesthesia, prolongation factor ([2]; dose 67.2 mg/kg peroral): 1.5

CC(C)CCN1CCN2c3ccccc3C(c3cccs3)=NCC2C1 (centres unmarked) [Example 74]
inhibition in vivo at 3.3 mg/kg ([1]; dose 3.3 mg/kg peroral): 70% | LD50 at 168 h [3]: ~730 mg/kg | Prolongation of the duration of hexobarbital anaesthesia, prolongation factor ([2]; dose 33.0 mg/kg peroral): 2.0

CN1CCN2c3ccccc3C(c3cccs3)=NCC2C1 (centres unmarked) [Example 4, 1,2,3,4,4a,5-Hexahydro-3-methyl-7-(2-thienyl)-pyrazino[1,2-a][1,4]benzodiazepine]
inhibition in vivo at 2.9 mg/kg ([1]; dose 2.9 mg/kg peroral): 70% | LD50 at 168 h [3]: ~440 mg/kg | Prolongation of the duration of hexobarbital anaesthesia, prolongation factor ([2]; dose ≤13.8 mg/kg peroral): 0

CN1CCN2c3ccc(Cl)cc3C(c3cccn3C)=NCC2C1 (centres unmarked) [Example 9, 1,2,3,4,4a,5-Hexahydro-9-chloro-3-methyl-7-[2-(N-methyl)-pyrrolyl]-pyrazino[1,2-a][1,4]benzodiazepine]
inhibition in vivo at 4.2 mg/kg ([1]; dose 4.2 mg/kg peroral): 48% | LD50 at 168 h [3]: > 893 mg/kg | Prolongation of the duration of hexobarbital anaesthesia, prolongation factor ([2]; dose ≤41.5 mg/kg peroral): 0

CN1CCN2c3cc(F)ccc3C(c3cccs3)=NCC2C1 (centres unmarked) [Example 55]
inhibition in vivo at 0.2 mg/kg ([1]; dose 0.2 mg/kg peroral): 47% | LD50 at 168 h [3]: > 315 mg/kg | Prolongation of the duration of hexobarbital anaesthesia, prolongation factor ([2]; dose 6.8 mg/kg peroral): 1.3

CCN1CCN2c3ccccc3C(c3cccs3)=NCC2C1 (centres unmarked) [Example 69]
inhibition in vivo at 0.7 mg/kg ([1]; dose 0.7 mg/kg peroral): 71% | LD50 at 168 h [3]: ~420 mg/kg | Prolongation of the duration of hexobarbital anaesthesia, prolongation factor ([2]; dose ≤28.0 mg/kg peroral): 0

Cc1ccc2c(c1)C(c1ccco1)=[N+]([O-])CC1CN(C)CCN21 (centres unmarked) [Example 35]
inhibition in vivo at 9.8 mg/kg ([1]; dose 9.8 mg/kg peroral): 35% | LD50 at 168 h [3]: > 311 mg/kg | Prolongation of the duration of hexobarbital anaesthesia, prolongation factor ([2]; dose 9.8 mg/kg peroral): 2.1

COc1ccc2c(c1)N1CCN(C)CC1CN=C2c1cccs1 (centres unmarked) [Example 51]
inhibition in vivo at 2.2 mg/kg [1]: 57% | LD50 at 168 h [3]: > 704 mg/kg | Prolongation of the duration of hexobarbital anaesthesia, prolongation factor ([2]; dose 22.3 mg/kg peroral): 1.9

Cc1ccc2c(c1)C(c1ccco1)=NCC1CN(C)CCN21 (centres unmarked) [Example 10a, 1,2,3,4,4a,5-Hexahydro-3,9-dimethyl-7-(2-furyl)-pyrazino[1,2-a][1,4]benzodiazepine]
inhibition in vivo at 13.3 mg/kg ([1]; dose 13.3 mg/kg peroral): 31% | LD50 at 168 h [3]: > 422 mg/kg | Prolongation of the duration of hexobarbital anaesthesia, prolongation factor ([2]; dose ≤42.2 mg/kg peroral): 0

COc1ccc2c(c1)N1CCN(C)CC1C[N+]([O-])=C2c1ccco1 (centres unmarked) [Example 36]
inhibition in vivo at 22.3 mg/kg ([1]; dose 22.3 mg/kg peroral): 34% | LD50 at 168 h [3]: > 704 mg/kg | Prolongation of the duration of hexobarbital anaesthesia, prolongation factor ([2]; dose ≤70.4 mg/kg peroral): 0

C=CCN1CCN2c3ccccc3C(c3cccs3)=NCC2C1 (centres unmarked) [Example 70]
inhibition in vivo at 2.2 mg/kg [1]: 36% | LD50 at 168 h [3]: ~790 mg/kg | Prolongation of the duration of hexobarbital anaesthesia, prolongation factor ([2]; dose ≤39.6 mg/kg peroral): 0

Cc1cc(C)c2c(c1)N1CCSCC1CN=C2c1cccs1 (centres unmarked) [Example 65]
inhibition in vivo at 22.4 mg/kg ([1]; dose 22.4 mg/kg peroral): 12%

CCOc1ccc2c(c1)C(c1ccn(C)c1)=NCC1CN(C)CCN21 (centres unmarked) [Example 41]
inhibition in vivo at 13.9 mg/kg ([1]; dose 13.9 mg/kg peroral): 14% | Prolongation of the duration of hexobarbital anaesthesia, prolongation factor ([2]; dose 43.8 mg/kg peroral): 1.6

Cc1ccc2c(c1)C(c1ccc(Br)s1)=NCC1COCCN21 (centres unmarked) [Example 22]
inhibition in vivo at 8.1 mg/kg ([1]; dose 8.1 mg/kg peroral): 50% | LD50 at 168 h [3]: > 811 mg/kg | Prolongation of the duration of hexobarbital anaesthesia, prolongation factor ([2]; dose 37.7 mg/kg peroral): 1.5
